Among the test systems are MALME-3M melanoma; OVCAR-4 ovarian; SF-539 CNS; U251 CNS; SNB-75 CNS; IGROV1 ovarian; HS 578T breast; HL-60(TB) leukemia; ACHN renal; OVCAR-3 ovarian.
Assay in all cases: NCI anticancer screen, dose series, 48 h

Several values for one entry are separate records, joined by “and”; a condition that tells them apart may be missing. Equal values may be shown once.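 Five compound concentrations were applied to cells in 96-well plates for 48 hours; endpoints were derived by simple linear interpolation of the resulting dose-response curve. Abbreviation: GI50, concentration required for 50% inhibition of growth. The concentration for full growth arrest is given as TGI.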

With `COc1ccccc1Nc1nc(NNC(=O)Cc2ccccc2)nc(NNC(=O)c2ccncc2)n1`, the TGI with MALME-3M melanoma, in the experiment with OVCAR-4 ovarian, with SF-539 CNS, in the experiment on U251 CNS, with SNB-75 CNS and with IGROV1 ovarian was more than 10 µM in each case. The TGI in the experiment with HS 578T breast and in the experiment with HL-60(TB) leukemia was more than 10 µM throughout.

For the compound `c1cc(CNC2C3CCC(C3)C2c2c[nH]c3ccccc23)cc(CNC2C3CCC(C3)C2c2c[nH]c3ccccc23)c1` (stereo not given), the TGI is 3.45 µM in the experiment with MALME-3M melanoma; 3.24 µM and 3.34 µM with OVCAR-4 ovarian; 3.39 µM and 3.17 µM with SF-539 CNS; 1.32 µM with U251 CNS; 1.21 µM in the experiment on SNB-75 CNS; 2.69 µM with IGROV1 ovarian. Besides, the TGI in the experiment on HS 578T breast is 3.32 µM; in the experiment with ACHN renal it was 2.04 µM; with HL-60(TB) leukemia it was 4.21 µM. Further, the GI50 in the experiment on SF-539 CNS is 1.89 µM and 1.74 µM; in the experiment with HL-60(TB) leukemia, 1.6 µM.

In the case of `C=C1C(=O)O[C@H]2C[C@@]3(C)[C@H](O)CCC(=C)[C@@H]3[C@@H](OC(C)=O)[C@H]12`, the TGI with MALME-3M melanoma was 3.52 µM; with OVCAR-4 ovarian, 20.8 µM; in the experiment with OVCAR-3 ovarian, 26.9 µM; in the experiment on SF-539 CNS, 10.2 µM; in the experiment with U251 CNS, more than 71.3 µM; in the experiment with SNB-75 CNS, 29.2 µM. Also, the TGI was 30 µM in the experiment with IGROV1 ovarian, 38.5 µM in the experiment on HS 578T breast and 12.9 µM in the experiment with ACHN renal.

Consider `COC(=O)C1=C(C(=O)OC)SC(=C(Cl)C(=S)Sc2ccccc2N)S1`, for which the GI50 with MALME-3M melanoma is more than 100 µM; in the experiment on OVCAR-4 ovarian, 80.8 µM; in the experiment on OVCAR-3 ovarian, 28.1 µM; with SF-539 CNS, 18.3 µM; with U251 CNS it was 18.5 µM; in the experiment with SNB-75 CNS it was 32.8 µM. Moreover, the GI50 with HS 578T breast was 19 µM; with ACHN renal, 22.7 µM; in the experiment on HL-60(TB) leukemia, more than 100 µM. Also, the TGI in the experiment with MALME-3M melanoma is more than 100 µM; in the experiment with OVCAR-4 ovarian, more than 100 µM; in the experiment with OVCAR-3 ovarian, 64.6 µM; in the experiment with SF-539 CNS, 42.5 µM; in the experiment on U251 CNS it was 35.4 µM; with SNB-75 CNS it was more than 100 µM. The TGI is 66.2 µM with HS 578T breast, 49.7 µM with ACHN renal and more than 100 µM in the experiment with HL-60(TB) leukemia.

As to `CCCCCCN(CCCCCC)CC(O)c1ccc2c3c(cccc13)CC2` (stereo not given), the GI50 was 14.1 µM with MALME-3M melanoma; 10.3 µM in the experiment with OVCAR-4 ovarian; 8.96 µM with OVCAR-3 ovarian; 3.83 µM in the experiment with SF-539 CNS; 7.44 µM in the experiment with U251 CNS; 13.6 µM in the experiment on SNB-75 CNS. Further, the values for the GI50 in the experiment on HS 578T breast, in the experiment with ACHN renal and with HL-60(TB) leukemia were 10.8 µM, 10 µM and 2.16 µM, respectively. In addition, the TGI was 32.1 µM in the experiment on MALME-3M melanoma; 36.8 µM in the experiment on OVCAR-4 ovarian; 21.6 µM in the experiment with OVCAR-3 ovarian; 15.2 µM in the experiment with SF-539 CNS; 22.4 µM in the experiment on U251 CNS; 27.1 µM in the experiment on SNB-75 CNS. In addition, the TGI came to 27.2 µM in the experiment with HS 578T breast, 23.5 µM with ACHN renal and 6.16 µM with HL-60(TB) leukemia.

As to `CCC(c1cccc(O)c1)C(CC)c1cccc(O)c1` (stereo not given), the GI50 is 2.1 µM in the experiment on MALME-3M melanoma; 1.21 µM with OVCAR-4 ovarian; 6.2 µM with OVCAR-3 ovarian; 1.23 µM in the experiment on SF-539 CNS; 3.63 µM in the experiment with U251 CNS; 0.973 µM in the experiment on SNB-75 CNS. Further, the values for the GI50 with IGROV1 ovarian, in the experiment on HS 578T breast and with ACHN renal were 10.8 µM, 1.96 µM and 5.64 µM, respectively. Also, the TGI is 20 µM in the experiment with MALME-3M melanoma; 14.3 µM in the experiment on OVCAR-4 ovarian; 19 µM in the experiment with OVCAR-3 ovarian; 4.72 µM in the experiment on SF-539 CNS; 14.7 µM in the experiment with U251 CNS; 11.7 µM with SNB-75 CNS. Besides, the values for the TGI in the experiment on IGROV1 ovarian, in the experiment on HS 578T breast and in the experiment on ACHN renal were 25.3 µM, 9.77 µM and 18.9 µM, respectively.

As to `O=C1Nc2cccc3cc(NCC(O)CCl)cc1c23` (stereo not given), the TGI with MALME-3M melanoma, with OVCAR-4 ovarian, in the experiment on OVCAR-3 ovarian, in the experiment with U251 CNS, in the experiment on SNB-75 CNS and in the experiment on IGROV1 ovarian was more than 100 µM each time. The TGI in the experiment on HS 578T breast, in the experiment with ACHN renal and with HL-60(TB) leukemia was more than 100 µM throughout.

Turning to `Cc1cc(=O)oc2cc(O)c(CN(C)CC(=O)O)cc12`, the TGI with MALME-3M melanoma, in the experiment with OVCAR-4 ovarian, in the experiment on SF-539 CNS, in the experiment on U251 CNS, with SNB-75 CNS and with IGROV1 ovarian was more than 100 µM throughout. Besides, the TGI with HS 578T breast, in the experiment with ACHN renal and in the experiment on HL-60(TB) leukemia was more than 100 µM throughout.

The values above are taken from PubChem BioAssay (NCI).
